The test system of the assay is HCV replicon RNA-containing Huh7 cells (clone A cells). The experiment in a line: HCV replicon assay. To be noted: incubation 4 days, replicon RNA by RT-PCR, ΔCt of 3.3 = 1-log 10 reduction (EC90). Format: cell-based. Here is the method:
HCV replicon assay. HCV replicon RNA-containing Huh7 cells (clone A cells; Apath, LLC, St. Louis, Mo.) were kept at exponential growth in Dulbecco's modified Eagle's medium (high glucose) containing 10% fetal bovine serum, 4 mM L-glutamine and 1 mM sodium pyruvate, 1× nonessential amino acids, and G418 (1,000 μg/ml). Antiviral assays were performed in the same medium without G418. Cells were seeded in a 96-well plate at 1,500 cells per well, and test compounds were added immediately after seeding. Incubation time 4 days. At the end of the incubation step, total cellular RNA was isolated (RNeasy 96 kit; Qiagen). Replicon RNA and an internal control (TaqMan rRNA control reagents; Applied Biosystems) were amplified in a single-step multiplex RT-PCR protocol as recommended by the manufacturer. The HCV primers and probe were designed with Primer Express software (Applied Biosystems) and covered highly conserved 5′-untranslated region (UTR) sequences (sense primer: 5′-AGCCATGGCGTTAGTA(T)GAGTGT-3′ (SEQ ID NO: 1); antisense primer: 5′-TTCCGCAGACCACTATGG-3′ (SEQ ID NO:2); and probe; 5′-FAM-[…]-TAMRA-3′ (SEQ ID NO:3)).
To express the antiviral effectiveness of a compound, the threshold RT-PCR cycle of the test compound was subtracted from the average threshold RT-PCR cycle of the no-drug control (ΔCtHCV). A ΔCt of 3.3 equals a 1-log 10 reduction (equal to the 90% effective concentration [EC90]) in replicon RNA levels. The cytotoxicity of the test compound could also be expressed by calculating the ΔCtrRNA values. The ΔΔCt specificity parameter could then be introduced (ΔCtHCV-ΔCtrRNA), in which the levels of HCV RNA are normalized for the rRNA levels and calibrated against the no-drug control.

[1] abbreviates: Hepatitis C virus, Huh-7, 96 h, Huh7 clone A replicon cells, read-out: CloneA EC90.
Setting [2] is: Hepatitis C virus, Huh-7, 96 h, read-out: CloneA EC90, Huh7 clone A replicon cells.
Setting [3] is: Huh7 clone A replicon cells, read-out: CloneA EC90.
Setting [4] is: read-out: CloneA EC90, Huh7 clone A replicon cells.

Like-named read-outs stand apart in the source and are kept apart here.

For `C[C@@]1(F)[C@@H]2O[P@](=O)(OCC3CC3)OC[C@H]2O[C@H]1n1cnc2c(O)nc(N)nc21` (single isomer, unassigned) [Example 38b], the EC90 under setting [1] was 26.6 µM.

Turning to `COc1nc(N)nc2c1ncn2[C@@H]1O[C@@H]2CO[P@](=O)(OC(C)C)O[C@H]2[C@@]1(C)F` (single isomer, unassigned) [Example 43b], the 90% effect concentration (EC90) under setting [1] came out at 0.06 µM.

In the case of `C[C@@]1(F)[C@@H]2O[P@@](=O)(OCc3ccccc3)OC[C@H]2O[C@H]1n1ccc(=O)[nH]c1=O` [Compound 2b, 1-((2S,4aR,6R,7R,7aR)-2-Benzyloxy-7-fluoro-7-methyl-2-oxo-tetrahydro-2λ^5-furo[3,2-d][1,3,2]dioxaphosphinin-6-yl)-1H-pyrimidine-2,4-dione], the EC90 under setting [1] came to 17.7 µM.

For the molecule `COc1nc(N)nc2c1ncn2[C@@H]1O[C@@H]2COP(=O)(OCc3ccccc3)O[C@H]2[C@@]1(C)F` (stereo in doubt) [Example 44, 9-((2R,4aR,6R,7R,7aR)-2-Benzyloxy-7-fluoro-7-methyl-2-oxo-tetrahydro-2λ^5-furo[3,2-d][1,3,2]dioxaphosphinin-6-yl)-6-methoxy-9H-purin-2-ylamine], the 90% effect concentration (EC90) under setting [1] worked out at 0.053 µM.

Turning to `CO[P@]1(=O)OC[C@H]2O[C@@H](n3ccc(N)nc3=O)[C@](C)(F)[C@@H]2O1` [Compound 5, 4-Amino-1-((2R,4aR,6R,7R,7aR)-7-fluoro-2-methoxy-7-methyl-2-oxo-tetrahydro-2λ^5-furo[3,2-d][1,3,2]dioxaphosphinin-6-yl)-1H-pyrimidin-2-one], under setting [2], the concentration for an effect of 90% (EC90) came to 8.06 µM.

In the case of `CCOc1nc(N)nc2c1ncn2[C@@H]1O[C@@H]2COP(=O)(OC)O[C@H]2[C@@]1(C)F` (stereo partly drawn) [Compound 18, 6-Ethoxy-9-((4aR,6R,7R,7aR)-7-fluoro-2-methoxy-7-methyl-2-oxo-tetrahydro-2,5-furo[3,2-d][1,3,2]dioxaphosphinin-6-yl)-9H-purin-2-ylamine], the EC90 under setting [3] amounted to 0.48 µM.

With `C[C@@]1(F)[C@@H]2O[P@@](=O)(OC3CCCC3)OC[C@H]2O[C@H]1n1cnc2c(N3CCC3)nc(N)nc21` [Example 32b, 6-Azetidin-1-yl-9-((4aR,6R,7R,7aR)-2-cyclopentyloxy-7-fluoro-7-methyl-2-oxo-tetrahydro-2λ^5-furo[3,2-d][1,3,2]dioxaphosphinin-6-yl)-9H-purin-2-ylamine], the EC90 under setting [1] came out at 4.7 µM.

For `CO[P@@]1(=O)OC[C@H]2O[C@@H](n3ccc(=O)[nH]c3=O)[C@](C)(F)[C@@H]2O1` [Compound 1b, 1-((2S,4aR,6R,7R,7aR)-7-Fluoro-2-methoxy-7-methyl-2-oxo-tetrahydro-2λ^5-furo[3,2-d][1,3,2]dioxaphosphinin-6-yl)-1H-pyrimidine-2,4-dione], the 90% effect concentration (EC90) under setting [4] was 17.4 µM.

Turning to `CCOc1nc(N)nc2c1ncn2[C@@H]1O[C@@H]2COP(=O)(O)O[C@H]2[C@@]1(C)F` [Example 45, (4aR,6R,7R,7aR)-6-(2-Amino-6-ethoxy-purin-9-yl)-7-fluoro-7-methyl-2-oxo-tetrahydro-2λ^5-furo[3,2-d][1,3,2]dioxaphosphinin-2-ol], the EC90 under setting [1] came out at 0.7 µM.

Consider `COP1(=O)OC[C@H]2O[C@@H](n3cnc4c(O)nc(N)nc43)[C@](C)(F)[C@@H]2O1` (stereo partly drawn) [Compound 4, 2-Amino-9-((4aR,6R,7R,7aR)-7-fluoro-2-methoxy-7-methyl-2-oxo-tetrahydro-2λ^5-furo[3,2-d][1,3,2]dioxaphosphinin-6-yl)-9H-purin-6-ol], for which the 90% effect concentration (EC90) under setting [2] amounted to 11.7 µM.

On to `C[C@@]1(F)[C@@H]2O[P@](=O)(OC3CCCC3)OC[C@H]2O[C@H]1n1cnc2c(N3CCC3)nc(N)nc21` [Example 32a, 6-Azetidin-1-yl-9-((4aR,6R,7R,7aR)-2-cyclopentyloxy-7-fluoro-7-methyl-2-oxo-tetrahydro-2λ^5-furo[3,2-d][1,3,2]dioxaphosphinin-6-yl)-9H-purin-2-ylamine], for which the EC90 under setting [1] came to 8.54 µM.

`COc1nc(N)nc2c1ncn2[C@@H]1O[C@@H]2COP(=O)(OC(C)C)O[C@H]2[C@@]1(C)F` (single isomer, unassigned) [Example 43a]: the EC90 under setting [1] worked out at 0.29 µM.

Take `CCOc1nc(N)nc2c1ncn2[C@@H]1O[C@@H]2COP(=O)(OC(C)C)O[C@H]2[C@@]1(C)F` (stereo partly drawn) [Compound 19, 6-Ethoxy-9-((4aR,6R,7R,7aR)-7-fluoro-2-isopropoxy-7-methyl-2-oxo-tetrahydro-2,5-furo[3,2-d][1,3,2]dioxaphosphinin-6-yl)-9H-purin-2-yl amine]: under setting [3], the EC90 was 0.6 µM.

As to `COP1(=O)OC[C@H]2O[C@@H](n3cnc4c(N5CCC5)nc(N)nc43)[C@](C)(F)[C@@H]2O1` (stereo partly drawn) [Compound 3, 6-Azetidin-1-yl-9-((4aR,6R,7R,7aR)-7-fluoro-2-methoxy-7-methyl-2-oxo-tetrahydro-2λ^5-furo[3,2-d][1,3,2]dioxaphosphinin-6-yl)-9H-purin-2-ylamine], under setting [4], the 90% effect concentration (EC90) amounted to 0.75 µM.

As to `C[C@@]1(F)[C@@H]2O[P@@](=O)(OCc3ccccc3)OC[C@H]2O[C@H]1n1ccc(=O)[nH]c1=O` (single isomer, unassigned) [Compound 2a], the EC90 under setting [1] was 25.2 µM.

For the molecule `COc1nc(N)nc2c1ncn2[C@@H]1O[C@@H]2COP(=O)(O)O[C@H]2[C@@]1(C)F` [Example 41, (4aR,6R,7R,7aR)-6-(2-Amino-6-methoxy-purin-9-yl)-7-fluoro-7-methyl-2-oxo-tetrahydro-2λ^5-furo[3,2-d][1,3,2]dioxaphosphinin-2-ol], under setting [1], the EC90 was 0.098 µM.

As for `CCOc1nc(N)nc2c1ncn2[C@@H]1O[C@@H]2CO[P@](=O)(OCc3ccccc3)O[C@H]2[C@@]1(C)F` [Example 48, 9-((4aR,6R,7R,7aR)-2-Benzyloxy-7-fluoro-7-methyl-2-oxo-tetrahydro-2λ5-furo[3,2-d][1,3,2]dioxaphosphinin-6-yl)-6-ethoxy-9H-purin-2-ylamine], under setting [1], the EC90 was 0.32 µM.

For the molecule `CO[P@@]1(=O)OC[C@H]2O[C@@H](n3ccc(=O)[nH]c3=O)[C@](C)(F)[C@@H]2O1` [Compound 1a, 1-((2S,4aR,6R,7R,7aR)-7-Fluoro-2-methoxy-7-methyl-2-oxo-tetrahydro-2λ^5-furo[3,2-d][1,3,2]dioxaphosphinin-6-yl)-1H-pyrimidine-2,4-dione], the EC90 under setting [4] came out at 5.35 µM.

In the case of `COP1(=O)OC[C@H]2O[C@@H](n3cnc4c(NC5CCC5)nc(N)nc43)[C@](C)(F)[C@@H]2O1` (stereo partly drawn) [Compound 6, N^6-Cyclobutyl-9((4aR,6R,7R,7aR)-7-fluoro-2-methoxy-7-methyl-2-oxo-tetrahydro-2λ^5-furo[3,2-d][1,3,2]dioxaphosphinin-6-yl)-9H-purine-2,6-diamine], under setting [2], the EC90 came out at 1.55 µM.
